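Protocol summary: plate cells (96-well), add compound at 5 concentrations, incubate 48 h, interpolate endpoints linearly. GI50 = concentration required for 50% inhibition of growth. TGI is the concentration that stops growth completely.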
What was measured:
Assay in all cases: growth of human tumour cells (NCI), 48 h
786-0 renal = test system: 786-0 renal
A498 renal = test system: A498 renal
A549 NSCLC = test system: A549 NSCLC
ACHN renal = test system: ACHN renal
BT-549 breast = test system: BT-549 breast
CAKI-1 renal = test system: CAKI-1 renal
CCRF-CEM leukemia = test system: CCRF-CEM leukemia
COLO 205 colon = test system: COLO 205 colon
DU-145 prostate = test system: DU-145 prostate
EKVX NSCLC = test system: EKVX NSCLC
HCC-2998 colon = test system: HCC-2998 colon
HCT-116 colon = test system: HCT-116 colon
HCT-15 colon = test system: HCT-15 colon
HL-60(TB) leukemia = test system: HL-60(TB) leukemia
HOP-62 NSCLC = test system: HOP-62 NSCLC
HOP-92 NSCLC = test system: HOP-92 NSCLC
HS 578T breast = test system: HS 578T breast
HT29 colon = test system: HT29 colon
IGROV1 ovarian = test system: IGROV1 ovarian
K-562 leukemia = test system: K-562 leukemia
KM12 colon = test system: KM12 colon
LOX IMVI melanoma = test system: LOX IMVI melanoma
M14 melanoma = test system: M14 melanoma
MALME-3M melanoma = test system: MALME-3M melanoma
MCF7 breast = test system: MCF7 breast
MDA-MB-231 breast = test system: MDA-MB-231 breast
MDA-MB-435 = test system: MDA-MB-435
MDA-MB-468 breast = test system: MDA-MB-468 breast
MOLT-4 leukemia = test system: MOLT-4 leukemia
NCI-H226 lung = test system: NCI-H226 lung
NCI-H23 lung = test system: NCI-H23 lung
NCI-H460 lung = test system: NCI-H460 lung
NCI-H522 lung = test system: NCI-H522 lung
NCI/ADR-RES ovarian = test system: NCI/ADR-RES ovarian
OVCAR-3 ovarian = test system: OVCAR-3 ovarian
OVCAR-4 ovarian = test system: OVCAR-4 ovarian
OVCAR-5 ovarian = test system: OVCAR-5 ovarian
OVCAR-8 ovarian = test system: OVCAR-8 ovarian
PC-3 prostate = test system: PC-3 prostate
RPMI-8226 leukemia = test system: RPMI-8226 leukemia
RXF 393 renal = test system: RXF 393 renal
SF-268 CNS = test system: SF-268 CNS
SF-295 CNS = test system: SF-295 CNS
SF-539 CNS = test system: SF-539 CNS
SK-MEL-2 melanoma = test system: SK-MEL-2 melanoma
SK-MEL-28 melanoma = test system: SK-MEL-28 melanoma
SK-MEL-5 melanoma = test system: SK-MEL-5 melanoma
SK-OV-3 ovarian = test system: SK-OV-3 ovarian
SN12C renal = test system: SN12C renal
SNB-19 CNS = test system: SNB-19 CNS
SNB-75 CNS = test system: SNB-75 CNS
SR leukemia = test system: SR leukemia
SW-620 colon = test system: SW-620 colon
T-47D breast = test system: T-47D breast
TK-10 renal = test system: TK-10 renal
U251 CNS = test system: U251 CNS
UACC-257 melanoma = test system: UACC-257 melanoma
UACC-62 melanoma = test system: UACC-62 melanoma
UO-31 renal = test system: UO-31 renal

SMILES: O=C(CNc1nc(-c2ccccc2)cs1)Nc1cccc([N+](=O)[O-])c1
- GI50 (786-0 renal): 253 nM
- TGI (786-0 renal): 663 nM
- GI50 (A498 renal): 223 nM
- TGI (A498 renal): 555 nM
- GI50 (A549 NSCLC): 323 nM
- TGI (A549 NSCLC): 1390 nM
- GI50 (ACHN renal): 200 nM
- TGI (ACHN renal): 436 nM
- GI50 (BT-549 breast): 167 nM
- TGI (BT-549 breast): 347 nM
- GI50 (CAKI-1 renal): 182 nM
- TGI (CAKI-1 renal): 558 nM
- GI50 (CCRF-CEM leukemia): 58.7 nM
- TGI (CCRF-CEM leukemia): 4520 nM
- GI50 (COLO 205 colon): 193 nM
- TGI (COLO 205 colon): 367 nM
- GI50 (DU-145 prostate): 264 nM
- TGI (DU-145 prostate): 730 nM
- GI50 (EKVX NSCLC): 231 nM
- TGI (EKVX NSCLC): 580 nM
- GI50 (HCC-2998 colon): 175 nM
- TGI (HCC-2998 colon): 321 nM
- GI50 (HCT-116 colon): 188 nM
- TGI (HCT-116 colon): 590 nM
- GI50 (HCT-15 colon): 93 nM
- TGI (HCT-15 colon): 413 nM
- GI50 (HL-60(TB) leukemia): 198 nM
- TGI (HL-60(TB) leukemia): 937 nM
- GI50 (HOP-62 NSCLC): 216 nM
- TGI (HOP-62 NSCLC): 469 nM
- GI50 (HOP-92 NSCLC): 243 nM
- TGI (HOP-92 NSCLC): 660 nM
- GI50 (HS 578T breast): 230 nM
- TGI (HS 578T breast): 739 nM
- GI50 (HT29 colon): 142 nM
- TGI (HT29 colon): 357 nM
- GI50 (IGROV1 ovarian): 108 nM
- TGI (IGROV1 ovarian): 459 nM
- GI50 (K-562 leukemia): 223 nM
- TGI (K-562 leukemia): 11200 nM
- GI50 (KM12 colon): 246 nM
- TGI (KM12 colon): 693 nM
- GI50 (LOX IMVI melanoma): 106 nM
- TGI (LOX IMVI melanoma): 238 nM
- GI50 (M14 melanoma): 177 nM
- TGI (M14 melanoma): 347 nM
- GI50 (MALME-3M melanoma): 172 nM
- TGI (MALME-3M melanoma): 314 nM
- GI50 (MCF7 breast): 166 nM
- TGI (MCF7 breast): 551 nM
- GI50 (MDA-MB-231 breast): 196 nM
- TGI (MDA-MB-231 breast): 375 nM
- GI50 (MDA-MB-435): 170 nM
- TGI (MDA-MB-435): 319 nM
- GI50 (MDA-MB-468 breast): 185 nM
- TGI (MDA-MB-468 breast): 358 nM
- GI50 (MOLT-4 leukemia): 117 nM
- TGI (MOLT-4 leukemia): 2530 nM
- GI50 (NCI-H226 lung): 188 nM
- TGI (NCI-H226 lung): 444 nM
- GI50 (NCI-H23 lung): 72.4 nM
- TGI (NCI-H23 lung): 202 nM
- GI50 (NCI-H460 lung): 136 nM
- TGI (NCI-H460 lung): 616 nM
- GI50 (NCI-H522 lung): 129 nM
- TGI (NCI-H522 lung): 297 nM
- GI50 (NCI/ADR-RES ovarian): 175 nM
- TGI (NCI/ADR-RES ovarian): 381 nM
- GI50 (OVCAR-3 ovarian): 251 nM
- TGI (OVCAR-3 ovarian): 708 nM
- GI50 (OVCAR-4 ovarian): 223 nM
- TGI (OVCAR-4 ovarian): 511 nM
- GI50 (OVCAR-5 ovarian): 203 nM
- TGI (OVCAR-5 ovarian): 413 nM
- GI50 (OVCAR-8 ovarian): 222 nM
- TGI (OVCAR-8 ovarian): 568 nM
- GI50 (PC-3 prostate): 217 nM
- TGI (PC-3 prostate): 1860 nM
- GI50 (RPMI-8226 leukemia): 291 nM
- TGI (RPMI-8226 leukemia): 1230 nM
- GI50 (RXF 393 renal): 128 nM
- TGI (RXF 393 renal): 269 nM
- GI50 (SF-268 CNS): 257 nM
- TGI (SF-268 CNS): 725 nM
- GI50 (SF-295 CNS): 223 nM
- TGI (SF-295 CNS): 519 nM
- GI50 (SF-539 CNS): 180 nM
- TGI (SF-539 CNS): 358 nM
- GI50 (SK-MEL-2 melanoma): 177 nM
- TGI (SK-MEL-2 melanoma): 323 nM
- GI50 (SK-MEL-28 melanoma): 199 nM
- TGI (SK-MEL-28 melanoma): 379 nM
- GI50 (SK-MEL-5 melanoma): 166 nM
- TGI (SK-MEL-5 melanoma): 302 nM
- GI50 (SK-OV-3 ovarian): 128 nM
- TGI (SK-OV-3 ovarian): 335 nM
- GI50 (SN12C renal): 184 nM
- TGI (SN12C renal): 469 nM
- GI50 (SNB-19 CNS): 206 nM
- TGI (SNB-19 CNS): 500 nM
- GI50 (SNB-75 CNS): 136 nM
- TGI (SNB-75 CNS): 320 nM
- GI50 (SR leukemia): 175 nM
- TGI (SR leukemia): > 34900 nM
- GI50 (SW-620 colon): 66.3 nM
- TGI (SW-620 colon): 914 nM
- GI50 (T-47D breast): 218 nM
- TGI (T-47D breast): 632 nM
- GI50 (TK-10 renal): 197 nM
- TGI (TK-10 renal): 660 nM
- GI50 (U251 CNS): 262 nM
- TGI (U251 CNS): 927 nM
- GI50 (UACC-257 melanoma): 256 nM
- TGI (UACC-257 melanoma): 826 nM
- GI50 (UACC-62 melanoma): 119 nM
- TGI (UACC-62 melanoma): 245 nM
- GI50 (UO-31 renal): 169 nM
- TGI (UO-31 renal): 444 nM
